# Test results reported in ChEMBL document CHEMBL1201862, “PubChem BioAssay data set” (2004).
#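 Briefly, cells in 96-well plates were exposed to five compound concentrations for 48 h, and endpoints were estimated by linear interpolation. GI50 = concentration required for 50% inhibition of growth.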 Activity calls are given as the source filed them. No stated cut-off is given here; in the data, active = GI50 up to about 1.1 µM and inactive = higher.
# How the values were obtained:
# Assay in all cases: inhibition of tumour cell growth, NCI panel, 48 h
# 786-0 = test system: 786-0
# A498 = test system: A498
# A549 = test system: A549
# ACHN = test system: ACHN
# BT-549 = test system: BT-549
# CAKI-1 = test system: CAKI-1
# CCRF-CEM = test system: CCRF-CEM
# COLO 205 = test system: COLO 205
# DU-145 = test system: DU-145
# EKVX = test system: EKVX
# HCC 2998 = test system: HCC 2998
# HCT-116 = test system: HCT-116
# HCT-15 = test system: HCT-15
# HL-60 = test system: HL-60
# HOP-62 = test system: HOP-62
# HT-29 = test system: HT-29
# Hs-578T = test system: Hs-578T
# IGROV-1 = test system: IGROV-1
# K562 = test system: K562
# KM12 = test system: KM12
# LOX IMVI = test system: LOX IMVI
# M14 = test system: M14
# MCF7 = test system: MCF7
# MDA-MB-231 = test system: MDA-MB-231
# MDA-MB-435 = test system: MDA-MB-435
# MOLT-4 = test system: MOLT-4
# Malme-3M = test system: Malme-3M
# NCI-H226 = test system: NCI-H226
# NCI-H23 = test system: NCI-H23
# NCI-H460 = test system: NCI-H460
# NCI-H522 = test system: NCI-H522
# NCI/ADR-RES = test system: NCI/ADR-RES
# OVCAR-3 = test system: OVCAR-3
# OVCAR-4 = test system: OVCAR-4
# OVCAR-5 = test system: OVCAR-5
# OVCAR-8 = test system: OVCAR-8
# PC-3 = test system: PC-3
# RPMI-8226 = test system: RPMI-8226
# RXF 393 = test system: RXF 393
# SF-268 = test system: SF-268
# SF-295 = test system: SF-295
# SF-539 = test system: SF-539
# SK-MEL-28 = test system: SK-MEL-28
# SK-MEL-2 = test system: SK-MEL-2
# SK-MEL-5 = test system: SK-MEL-5
# SK-OV-3 = test system: SK-OV-3
# SN12C = test system: SN12C
# SNB-19 = test system: SNB-19
# SNB-75 = test system: SNB-75
# SR = test system: SR
# SW-620 = test system: SW-620
# T47D = test system: T47D
# TK-10 = test system: TK-10
# U-251 = test system: U-251
# UACC-257 = test system: UACC-257
# UACC-62 = test system: UACC-62
# UO-31 = test system: UO-31
# HOP-92 = test system: HOP-92
smiles,measurement,setting,value
CN1C2CCC1CC(=CCOC(c1ccc(F)cc1)c1ccc(F)cc1)C2,GI50,786-0,14 µM (inactive)
same,GI50,A498,14.7 µM (inactive)
same,GI50,A549,17.1 µM (inactive)
same,GI50,ACHN,17.4 µM (inactive)
same,GI50,BT-549,16.3 µM (inactive)
same,GI50,CAKI-1,16.4 µM (inactive)
same,GI50,CCRF-CEM,37 µM (inactive)
same,GI50,COLO 205,11 µM (inactive)
same,GI50,DU-145,16.9 µM (inactive)
same,GI50,EKVX,18.8 µM (inactive)
same,GI50,HCC 2998,4 µM (inactive)
same,GI50,HCT-116,11.8 µM (inactive)
same,GI50,HCT-15,15.7 µM
same,GI50,HL-60,13.6 µM (inactive)
same,GI50,HOP-62,17.7 µM (inactive)
same,GI50,HT-29,5.21 µM (inactive)
same,GI50,Hs-578T,11.9 µM (inactive)
same,GI50,IGROV-1,15.7 µM (inactive)
same,GI50,K562,5.94 µM (inactive)
same,GI50,KM12,15 µM (inactive)
same,GI50,LOX IMVI,16.8 µM (inactive)
same,GI50,M14,16.4 µM (inactive)
same,GI50,MCF7,16.6 µM (inactive)
same,GI50,MDA-MB-231,17.9 µM (inactive)
same,GI50,MDA-MB-435,12.8 µM (inactive)
same,GI50,MOLT-4,15 µM (inactive)
same,GI50,Malme-3M,13.2 µM (inactive)
same,GI50,NCI-H226,20.3 µM (inactive)
same,GI50,NCI-H23,17.7 µM (inactive)
same,GI50,NCI-H460,17.2 µM (inactive)
same,GI50,NCI-H522,11.6 µM (inactive)
same,GI50,NCI/ADR-RES,23.3 µM (inactive)
same,GI50,OVCAR-3,17 µM (inactive)
same,GI50,OVCAR-4,16.2 µM (inactive)
same,GI50,OVCAR-5,17.4 µM (inactive)
same,GI50,OVCAR-8,17.1 µM (inactive)
same,GI50,PC-3,16.1 µM (inactive)
same,GI50,RPMI-8226,15.3 µM (inactive)
same,GI50,RXF 393,14.5 µM (inactive)
same,GI50,SF-268,12.9 µM (inactive)
same,GI50,SF-295,16.9 µM (inactive)
same,GI50,SF-539,16.4 µM (inactive)
same,GI50,SK-MEL-28,18.9 µM (inactive)
same,GI50,SK-MEL-2,19.1 µM (inactive)
same,GI50,SK-MEL-5,10.3 µM (inactive)
same,GI50,SK-OV-3,17 µM (inactive)
same,GI50,SN12C,17.3 µM (inactive)
same,GI50,SNB-19,21.2 µM (inactive)
same,GI50,SNB-75,13.8 µM (inactive)
same,GI50,SR,15.8 µM (inactive)
same,GI50,SW-620,30.8 µM (inactive)
same,GI50,T47D,17.6 µM (inactive)
same,GI50,TK-10,14.9 µM (inactive)
same,GI50,U-251,17.2 µM (inactive)
same,GI50,UACC-257,16.1 µM (inactive)
same,GI50,UACC-62,15.1 µM (inactive)
same,GI50,UO-31,9.91 µM (inactive)
COc1ccc(C[C@@H](C(=O)O[C@H](C)[C@H](NC(=O)[C@@H](CC(C)C)N(C)C(=O)C2CCCN2C(=O)[C@H](C)O)C(=O)N2CCCCNC(=O)[C@@H](C)C(=O)[C@H](C(C)C)OC(=O)C[C@H](O)[C@H]2CC(C)C)N(C)C(C)=O)cc1 (some centres undefined),GI50,786-0,12.4 µM (inactive)
same,GI50,A498,14.3 µM (inactive)
same,GI50,A549,13.2 µM (inactive)
same,GI50,ACHN,12.6 µM (inactive)
same,GI50,BT-549,17.5 µM (inactive)
same,GI50,CAKI-1,10.8 µM (inactive)
same,GI50,CCRF-CEM,8.61 µM (inactive)
same,GI50,COLO 205,6.82 µM (inactive)
same,GI50,DU-145,11.4 µM (inactive)
same,GI50,EKVX,6.78 µM (inactive)
same,GI50,HCC 2998,9.33 µM (inactive)
same,GI50,HCT-116,4.76 µM (inactive)
same,GI50,HCT-15,16 µM
same,GI50,HL-60,10.9 µM (inactive)
same,GI50,HOP-62,13.4 µM (inactive)
same,GI50,HOP-92,15 µM (inactive)
same,GI50,HT-29,3.27 µM (inactive)
same,GI50,Hs-578T,4.11 µM (inactive)
same,GI50,IGROV-1,9.2 µM (inactive)
same,GI50,K562,8.05 µM (inactive)
same,GI50,KM12,4.89 µM (inactive)
same,GI50,M14,9.08 µM (inactive)
same,GI50,MCF7,2.78 µM (inactive)
same,GI50,MDA-MB-231,9.35 µM (inactive)
same,GI50,MDA-MB-435,16.7 µM (inactive)
same,GI50,MOLT-4,8.41 µM (inactive)
same,GI50,Malme-3M,10.2 µM (inactive)
same,GI50,NCI-H226,11.7 µM (inactive)
same,GI50,NCI-H23,10.3 µM (inactive)
same,GI50,NCI-H460,9.82 µM (inactive)
same,GI50,NCI-H522,9.25 µM (inactive)
same,GI50,NCI/ADR-RES,21.3 µM (inactive)
same,GI50,OVCAR-3,14 µM (inactive)
same,GI50,OVCAR-4,7.83 µM (inactive)
same,GI50,OVCAR-5,7.89 µM (inactive)
same,GI50,OVCAR-8,18.9 µM (inactive)
same,GI50,PC-3,15.8 µM (inactive)
same,GI50,RPMI-8226,9.08 µM (inactive)
same,GI50,RXF 393,5.2 µM (inactive)
same,GI50,SF-268,17.8 µM (inactive)
same,GI50,SF-295,10.1 µM (inactive)
same,GI50,SF-539,5.18 µM (inactive)
same,GI50,SK-MEL-28,4.13 µM (inactive)
same,GI50,SK-MEL-2,17.7 µM (inactive)
same,GI50,SK-MEL-5,3.95 µM (inactive)
same,GI50,SK-OV-3,16.1 µM (inactive)
same,GI50,SN12C,15.2 µM (inactive)
same,GI50,SNB-19,10.6 µM (inactive)
same,GI50,SNB-75,9.84 µM (inactive)
same,GI50,SR,9.95 µM (inactive)
same,GI50,SW-620,5.85 µM (inactive)
same,GI50,T47D,10.7 µM (inactive)
same,GI50,TK-10,38.5 µM (inactive)
same,GI50,U-251,3.1 µM (inactive)
same,GI50,UACC-257,17.5 µM (inactive)
same,GI50,UACC-62,3.71 µM (inactive)
same,GI50,UO-31,36.1 µM (inactive)
